Data set [1] addresses transferrin receptor (TfR). The settings on record: read-out: Dissociation constant Kd to TfR; cited from earlier work.
Data set [2] relates to hiPS-BMEC (human iPS-derived BMEC-like cells) monolayer. Briefly: Transwell permeability across hiPS-BMEC monolayer. The format is in vitro ADME. As to conditions: cys-T7 versus cys-Tfr-T12 peptide.
In the next data set the test system is hiPS-BMEC. In words: Confocal imaging of uptake and colocalization in hiPS-BMEC. The format is cell-based, human. As to conditions: 125 nM AF 488-Tf, 1250 nM unlabeled Tf, 1 h, 37 °C.
In a further data set the test system is HBEC. Briefly: Confocal imaging of uptake in HBEC. The settings on record: 125 nM AF 488-Tf, 1250 nM unlabeled Tf, 1 h, 37 °C. The format is cell-based, human.

On to HAIYPRH [T7 peptide], for which the dissociation constant Kd in data set [1] is 10 nM. Turning to CHAIYPRH [cys-T7 peptide], the “Permeability compared between the two peptides” value in data set [2] is listed as “higher permeability”. Regarding THRPPMWSPVWP [Tfr-T12 peptide], the equilibrium dissociation constant (Kd) in data set [1] was 15 nM.

With “AF 488-Tf: Alexa Fluor 488 labeled transferrin”, the “Internalization on co-incubation with 10-fold excess of unlabeled Tf” value with hiPS-BMEC and in the data set on HBEC was “reduced internalization” throughout. Regarding “Tf: unlabeled transferrin, the native ligand of TfR”, the Kd in data set [1] was 2.8 nM.

Source of the values: PMC8927846 (Materials Today Bio, 2022).
